Results on 23 compounds are retold here after patent US10961205B2, “1,2,4-oxadiazole derivatives as immunomodulators” (Aurigene Discovery Technologies Limited, priority 2013, dated 2021).

The experiment relates to PD-L1. Nature of the experiment: Rescue of mouse splenocyte proliferation in presence of recombinant PD-L1 (CFSE proliferation assay). The format is cell-based. As to conditions: anti-CD3/CD28 stimulated mouse splenocytes in presence of ligand (PDL-1), 72 h, stimulated splenocyte proliferation normalised as 100%. Here is the method: Rescue of Mouse Splenocyte Proliferation in Presence of Recombinant PD-L1/PD-L2
Recombinant mouse PD-L1 (rm-PDL-1, cat no: 1019-B7-100 & rh-PDL-1, cat no: 156-B7-100, R&D Systems) were used as the source of PD-L1.
Mouse splenocytes harvested from 6-8 weeks old C57 BL6 mice; RPMI 1640 (GIBCO, Cat #11875); DMEM with high glucose (GIBCO, Cat #D6429); Fetal Bovine Serum [Hyclone, Cat #SH30071.03]; Penicillin (10000 unit/mL)-Streptomycin(10,000 μg/mL) Liquid (GIBCO, Cat #15140-122); MEM Sodium Pyruvate solution 100 mM (100×), Liquid (GIBCO, Cat #11360); Nonessential amino acid (GIBCO, Cat #11140); L-Glutamine (GIBCO, Cat #25030); Anti-CD3 antibody (eBiosciences—16-0032); Anti-CD28 antibody (eBiosciences—16-0281); ACK lysis buffer (1 mL) (GIBCO, Cat #-A10492); Histopaque (density-1.083 gm/mL) (SIGMA 10831); Trypan blue solution (SIGMA-T8154); 2 mL Norm Ject Luer Lock syringe-(Sigma 2014-12); 40 μm nylon cell strainer (BD FALCON 35230); Hemacytometer (Bright line-SIGMA Z359629); FACS Buffer (PBS/0.1% BSA): Phosphate Buffered Saline (PBS) pH 7.2 (HiMedia TS1006) with 0.1% Bovine Serum Albumin (BSA) (SIGMA A7050) and sodium azide (SIGMA 08591); 5 mM stock solution of CFSE: CFSE stock solution was prepared by diluting lyophilized CFSE with 180 μL of Dimethyl sulfoxide (DMSO C2H6SO, SIGMA-D-5879) and aliquoted in to tubes for further use. Working concentrations were titrated from 10 μM to 1 μM. (eBioscience—650850-85); 0.05% Trypsin and 0.02% EDTA (SIGMA 59417C); 96-well format ELISA plates (Corning CLS3390); BD FACS caliber (E6016); Recombinant mouse B7-H1/PDL1 Fc Chimera, (rm-PD-L1 cat no: 1019-B7-100).
Splenocytes harvested in a 50 mL falcon tube by mashing mouse spleen in a 40 μm cell strainer were further treated with 1 mL ACK lysis buffer for 5 min at room temperature. After washing with 9 mL of RPMI complete media, cells were re-suspended in 3 mL of 1×PBS in a 15 mL tube. 3 mL of Histopaque was added carefully to the bottom of the tube without disturbing overlaying splenocyte suspension. After centrifuging at 800×g for 20 min at room temperature, the opaque layer of splenocytes was collected carefully without disturbing/mixing the layers. Splenocytes were washed twice with cold 1×PBS followed by total cell counting using Trypan Blue exclusion method and used further for cell based assays.
Splenocytes were cultured in RPMI complete media (RPMI+10% fetal bovine serum+1 mM sodium pyruvate+10,000 units/mL penicillin and 10,000 μg/mL streptomycin) and maintained in a CO2 incubator with 5% CO2 at 37° C.
CFSE is a dye that passively diffuses into cells and binds to intracellular proteins. 1×10^6 cells/mL of harvested splenocytes were treated with 5 μM of CFSE in pre-warmed 1×PBS/0.1% BSA solution for 10 min at 37° C. Excess CFSE was quenched using 5 volumes of ice-cold culture media to the cells and incubated on ice for 5 min. CFSE labelled splenocytes were further given three washes with ice cold complete RPMI media. CFSE labelled 1×10^5 splenocytes added to wells containing either MDA-MB231 cells (1×10^5 cells cultured in high glucose DMEM medium) or recombinant […] PDL-1 (100 ng/mL) and test compounds. Splenocytes were stimulated with anti-mouse CD3 and anti-mouse CD28 antibody (1 μg/mL each), and the culture was further incubated for 72 h at 37° C. with 5% CO2. Cells were harvested and washed thrice with ice cold FACS buffer and % proliferation was analyzed by flow cytometry with 488 nm excitation and 521 nm emission filters.
Percent splenocyte proliferation was analyzed using cell quest FACS program and percent rescue of splenocyte proliferation by compound was estimated after deduction of % background proliferation value and normalising to % stimulated splenocyte proliferation (positive control) as 100%.
Stimulated splenocytes: Splenocytes+anti-CD3/CD28 stimulation
Background proliferation: Splenocytes+anti-CD3/CD28+PD-L1
Compound proliferation: Splenocytes+anti-CD3/CD28+PD-L1+Compound […]

Take `CC(O)[C@H](NC(=O)N[C@@H](CCC(N)=O)c1nc([C@@H](N)C(C)O)no1)C(=O)O` (some centres unmarked) [Compound 23]: the “Percent rescue of splenocyte proliferation @ 100 nM compound concentration” value (from here on “Percent rescue”) was 74%.
Next, `NC(=O)C[C@H](N)c1nc([C@@H](N)CO)no1` [Compound 1]: 93%; `CC(O)[C@@H](NC(=O)N[C@H](CC(N)=O)c1nc([C@H](N)CO)no1)C(=O)O` (some centres unmarked) [Compound 15]: 83%; `CC(O)[C@H](NC(=O)N[C@H](CC(N)=O)c1nc([C@H](N)CO)no1)C(=O)O` (some centres unmarked) [Compound 17]: 55%.
To `CC(O)[C@H](NC(=O)N[C@@H](CCC(N)=O)c1nc([C@@H](N)CO)no1)C(=O)O` (some centres unmarked) [Compound 20] belongs 69%; to `COC[C@H](N)c1noc([C@H](CC(N)=O)NC(=O)N[C@H](C(=O)O)C(C)O)n1` (some centres unmarked) [Compound 10], 49%; to `CC(O)[C@@H](NC(=O)N[C@H](CC(N)=O)c1nc([C@@H](N)CO)no1)C(=O)O` (some centres unmarked) [Compound 18], 64%.
Take `CC(O)[C@H](N)c1noc([C@H](CCC(N)=O)NC(=O)N[C@@H](CO)C(=O)O)n1` (some centres unmarked) [Compound 22]: the “Percent rescue” value turned out to be 55%.
In the case of `CCCC(=O)N[C@@H](CO)c1noc([C@H](CC(N)=O)NC(=O)N[C@H](C(=O)O)C(C)O)n1` (some centres unmarked) [Compound 9], the “Percent rescue” value is given as 34%.
Next, `CC(O)[C@H](NC(=O)N[C@H](CC(N)=O)c1nc([C@@H](N)CO)no1)C(=O)O` (some centres unmarked) [Compound 13]: 74%.
In the case of `NC(=O)CC[C@H](NC(=O)N[C@@H](CO)C(=O)O)c1nc([C@@H](N)CO)no1` [Compound 21], the “Percent rescue” value is reported as 47%.
To `CC(O)[C@@H](NC(=O)N[C@@H](CC(N)=O)c1nc([C@@H](N)CO)no1)C(=O)O` (some centres unmarked) [Compound 11] belongs 90%; to `CC(O)[C@H](NC(=O)N[C@@H](CC(=O)O)c1nc([C@@H](N)CO)no1)C(=O)O` (some centres unmarked) [Compound 24], 52%.
To `CC(O)[C@H](NC(=O)N[C@@H](CC(N)=O)c1nc([C@@H](N)CO)no1)C(N)=O` (some centres unmarked) [Compound 7] belongs 55%; to `CC(O)[C@H](NC(=O)N[C@@H](CCC(=O)O)c1nc([C@@H](N)CO)no1)C(=O)O` (some centres unmarked) [Compound 19], 88%; to `CC(O)[C@@H](N)c1noc([C@@H](CC(N)=O)NC(=O)N[C@H](CO)C(=O)O)n1` (some centres unmarked) [Compound 5], 67.6%.
To `N[C@@H](CO)c1noc([C@H](CC(=O)O)NC(=O)N[C@@H](CO)C(=O)O)n1` [Compound 25] belongs 91%; to `CC(O)[C@@H](NC(=O)N[C@@H](CC(N)=O)c1nc([C@H](N)CO)no1)C(=O)O` (some centres unmarked) [Compound 16], 72%.
Consider `COC(=O)[C@@H](NC(=O)N[C@@H](CC(N)=O)c1nc([C@@H](N)CO)no1)C(C)O` (some centres unmarked) [Compound 6], for which the “Percent rescue” value was 84%.
As to `N[C@@H](CO)c1noc([C@H](CCC(=O)O)NC(=O)N[C@@H](CO)C(=O)O)n1` [Compound 8], the “Percent rescue” value was determined as 67%.
To `NC(=O)C[C@H](NC(=O)N[C@@H](CO)C(=O)O)c1nc([C@@H](N)CO)no1` [Compound 2] belongs 50%; to `CC(O)[C@H](NC(=O)N[C@@H](CC(N)=O)c1nc([C@@H](N)CO)no1)C(=O)O` (some centres unmarked) [Compound 4], 89%.
As to `CC(O)[C@H](NC(=O)N[C@@H](CC(N)=O)c1nc([C@H](N)CO)no1)C(=O)O` (some centres unmarked) [Compound 12], the “Percent rescue” value turned out to be 64%.
